Test results: patent publication US20110105748A1, “Novel beta-phenyl-alpha-oxysubstituted propionic derivatives: process for its preparation and their use in the preparation of pharmaceutically important compounds” (priority 2001, published 2011)

melting point: 74 to 76 °C
Structure (SMILES): CCOC(=O)[C@H](Cc1ccc(N)cc1)OCC [Example 6, (S)-Ethyl 2-ethoxy-3-(4-aminophenyl)propionate]
